In ChEMBL document CHEMBL3885881, “DrugMatrix”:

Species on record: Rattus norvegicus
Assay: DrugMatrix - Regimen: Daily Repeat
Assay type: toxicity, organism-based, Sprague-Dawley
Set-up: regimen Daily Repeat, gender Male, age 6-8 weeks
Settings: in vivo, po, route oral GAVAGE, vehicle 100 % WATER; for ABSOLUTE BASOPHIL / ABSOLUTE EOSINOPHIL / ABSOLUTE LYMPHOCYTE / ABSOLUTE MONOCYTE / ABSOLUTE SEGMENTED NEUTROPHIL / BASOPHIL / EOSINOPHIL / ERYTHROCYTE COUNT / HEMATOCRIT / HEMOGLOBIN / LEUKOCYTE COUNT / LYMPHOCYTE / MEAN CORPUSCULAR HEMOGLOBIN / MEAN CORPUSCULAR HEMOGLOBIN CONCENTRATION / MEAN CORPUSCULAR VOLUME / MONOCYTE / NEUTROPHIL / NUCLEATED RED BLOOD CELLS / PLATELET COUNT: tissue Blood; for ALANINE AMINOTRANSFERASE / ALBUMIN / ALKALINE PHOSPHATASE / ASPARTATE AMINOTRANSFERASE / BLOOD UREA NITROGEN / CARBON DIOXIDE / CHLORIDE / CHOLESTEROL / CREATINE PHOSPHOKINASE / CREATININE / GLUCOSE / LACTATE DEHYDROGENASE / LIPASE / PHOSPHORUS / POTASSIUM / SODIUM / TOTAL BILIRUBIN / TOTAL PROTEIN / URIC ACID: tissue Plasma
[1] = 0 mg/kg, 72 h, dose level Control, time 3 day
[2] = 0 mg/kg, 120 h, dose level Control, time 5 day
[3] = 2 mg/kg, 72 h, dose level Low, time 3 day

CC(C)(C)c1ccc(C(=O)CCCN2CCC(OC(c3ccccc3)c3ccccc3)CC2)cc1 [EBASTINE]
ABSOLUTE BASOPHIL [1]: 0 CELLS/uL
ABSOLUTE EOSINOPHIL [1]: 123.17 CELLS/uL
ABSOLUTE LYMPHOCYTE [1]: 12677.83 CELLS/uL
ABSOLUTE MONOCYTE [1]: 66.17 CELLS/uL
ABSOLUTE SEGMENTED NEUTROPHIL [1]: 1149.5 CELLS/uL
BASOPHIL [1]: 0%
EOSINOPHIL [1]: 0.83%
ERYTHROCYTE COUNT [1]: 5.26 x10E6/uL
HEMATOCRIT [1]: 33.07%
HEMOGLOBIN [1]: 13.43 G/DL
LEUKOCYTE COUNT [1]: 14.02 x10E3/uL
LYMPHOCYTE [1]: 90.17%
MEAN CORPUSCULAR HEMOGLOBIN [1]: 25.62 pg
MEAN CORPUSCULAR HEMOGLOBIN CONCENTRATION [1]: 40.65 G/DL
MEAN CORPUSCULAR VOLUME [1]: 63 fL
MONOCYTE [1]: 0.5%
NEUTROPHIL [1]: 8.5%
NUCLEATED RED BLOOD CELLS [1]: 0.17 /100WBC
PLATELET COUNT [1]: 1142.83 x10E3/uL
ALANINE AMINOTRANSFERASE [1]: 45.17 u/L
ALBUMIN [1]: 3.78 G/DL
ALKALINE PHOSPHATASE [1]: 340.17 u/L
ASPARTATE AMINOTRANSFERASE [1]: 77.33 u/L
BLOOD UREA NITROGEN [1]: 14.67 mg/dL
CARBON DIOXIDE [1]: 28.67 mmol/L
CHLORIDE [1]: 101.17 MEQ/L
CHOLESTEROL [1]: 77.67 mg/dL
CREATINE PHOSPHOKINASE [1]: 263.67 u/L
CREATININE [1]: 0.15 mg/dL
GLUCOSE [1]: 169.33 mg/dL
LACTATE DEHYDROGENASE [1]: 230 u/L
LIPASE [1]: 9.67 u/L
PHOSPHORUS [1]: 11.8 mg/dL
POTASSIUM [1]: 5.91 MEQ/L
SODIUM [1]: 142.88 MEQ/L
TOTAL BILIRUBIN [1]: 0.22 mg/dL
TOTAL PROTEIN [1]: 5.7 G/DL
URIC ACID [1]: 1.35 mg/dL
ABSOLUTE BASOPHIL [2]: 0 CELLS/uL
ABSOLUTE EOSINOPHIL [2]: 125 CELLS/uL
ABSOLUTE LYMPHOCYTE [2]: 13809 CELLS/uL
ABSOLUTE MONOCYTE [2]: 351 CELLS/uL
ABSOLUTE SEGMENTED NEUTROPHIL [2]: 1581.67 CELLS/uL
BASOPHIL [2]: 0%
EOSINOPHIL [2]: 0.67%
ERYTHROCYTE COUNT [2]: 5.53 x10E6/uL
HEMATOCRIT [2]: 34.83%
HEMOGLOBIN [2]: 13.9 G/DL
LEUKOCYTE COUNT [2]: 15.87 x10E3/uL
LYMPHOCYTE [2]: 87.5%
MEAN CORPUSCULAR HEMOGLOBIN [2]: 25.25 pg
MEAN CORPUSCULAR HEMOGLOBIN CONCENTRATION [2]: 40.08 G/DL
MEAN CORPUSCULAR VOLUME [2]: 63.05 fL
MONOCYTE [2]: 2.17%
NEUTROPHIL [2]: 9.67%
NUCLEATED RED BLOOD CELLS [2]: 0 /100WBC
PLATELET COUNT [2]: 1044 x10E3/uL
ALANINE AMINOTRANSFERASE [2]: 50.67 u/L
ALBUMIN [2]: 4.33 G/DL
ALKALINE PHOSPHATASE [2]: 395 u/L
ASPARTATE AMINOTRANSFERASE [2]: 86 u/L
BLOOD UREA NITROGEN [2]: 15.33 mg/dL
CARBON DIOXIDE [2]: 29.33 mmol/L
CHLORIDE [2]: 101.5 MEQ/L
CHOLESTEROL [2]: 71.33 mg/dL
CREATINE PHOSPHOKINASE [2]: 323.17 u/L
CREATININE [2]: 0.18 mg/dL
GLUCOSE [2]: 145.67 mg/dL
LACTATE DEHYDROGENASE [2]: 389.5 u/L
LIPASE [2]: 9.83 u/L
PHOSPHORUS [2]: 11.35 mg/dL
POTASSIUM [2]: 6.39 MEQ/L
SODIUM [2]: 142.77 MEQ/L
TOTAL BILIRUBIN [2]: 0.18 mg/dL
TOTAL PROTEIN [2]: 6.1 G/DL
URIC ACID [2]: 1.52 mg/dL
ABSOLUTE BASOPHIL [3]: 0 CELLS/uL
ABSOLUTE EOSINOPHIL [3]: 62.33 CELLS/uL
ABSOLUTE LYMPHOCYTE [3]: 12860.33 CELLS/uL
ABSOLUTE MONOCYTE [3]: 62.33 CELLS/uL
ABSOLUTE SEGMENTED NEUTROPHIL [3]: 1348.33 CELLS/uL
BASOPHIL [3]: 0%
EOSINOPHIL [3]: 0.33%
ERYTHROCYTE COUNT [3]: 5.22 x10E6/uL
HEMATOCRIT [3]: 34.2%
HEMOGLOBIN [3]: 13.67 G/DL
LEUKOCYTE COUNT [3]: 14.33 x10E3/uL
LYMPHOCYTE [3]: 89.67%
MEAN CORPUSCULAR HEMOGLOBIN [3]: 26.2 pg
MEAN CORPUSCULAR HEMOGLOBIN CONCENTRATION [3]: 40 G/DL
MEAN CORPUSCULAR VOLUME [3]: 65.5 fL
MONOCYTE [3]: 0.33%
NEUTROPHIL [3]: 9.67%
NUCLEATED RED BLOOD CELLS [3]: 0 /100WBC
PLATELET COUNT [3]: 1183.33 x10E3/uL
ALANINE AMINOTRANSFERASE [3]: 47.67 u/L
ALBUMIN [3]: 3.87 G/DL
ALKALINE PHOSPHATASE [3]: 322 u/L
ASPARTATE AMINOTRANSFERASE [3]: 75.33 u/L
BLOOD UREA NITROGEN [3]: 14.33 mg/dL
CARBON DIOXIDE [3]: 32.67 mmol/L
CHLORIDE [3]: 99.67 MEQ/L
CHOLESTEROL [3]: 75.67 mg/dL
CREATINE PHOSPHOKINASE [3]: 258.67 u/L
CREATININE [3]: 0.13 mg/dL
GLUCOSE [3]: 151 mg/dL
LACTATE DEHYDROGENASE [3]: 188 u/L
LIPASE [3]: 10 u/L
PHOSPHORUS [3]: 11.23 mg/dL
POTASSIUM [3]: 6.55 MEQ/L
SODIUM [3]: 141.57 MEQ/L
TOTAL BILIRUBIN [3]: 0.2 mg/dL
TOTAL PROTEIN [3]: 5.63 G/DL
URIC ACID [3]: 1.3 mg/dL
